≈ marks a conversion by molar mass, not a printed value.
Tests used:
[1] = tested on: Gram-negative bacteria; test: Broth microdilution, summary over the Gram-negative panel; format: cell-based
From the text: In vitro antimicrobial activity assays - Methodology
The examined compounds 1 - 24 were screened in vitro for antibacterial and antifungal activities using the broth microdilution method according to procedure reported earlier by our research group and European Committee on Antimicrobial Susceptibility Testing (EUCAST) and Clinical and Laboratory Standards Institute (CLSI) guidelines against a panel of reference and clinical or saprophytic strains of microorganisms, in-cluding Gram-positive bacteria, Staphylococcus aureus ATCC 43300 (Methicillin Resistant S. aureus – MRSA), Staphylococcus aureus ATCC 29213 (Methicillin Susceptible S. aureus – MSSA), Staphylococcus epidermidis ATCC 12228, Enterococcus faecalis ATCC 29212, Micro-coccus luteus ATCC 10240, Bacillus subtilis ATCC 6633 and Bacillus cereus ATCC 10876), Gram-negative bacteria (Bordetella bronchiseptica ATCC 4617, Escherichia coli ATCC 25922, Klebsiella pneumoniae ATCC 13883, Proteus mirabilis ATCC 12453, Salmonella typhimurium ATCC 14028 and Pseudomonas aeruginosa ATCC 9027) and fungi belonging to yeasts (Can-dida albicans ATCC 10231, Candida albicans ATCC 2091, Candida parapsilosis ATCC 22019, Candida glabrata ATCC 90030 and Candida krusei ATCC 14243). The microorganisms be-longing to ATCC came from American Type Culture Collection, routinely used for the evaluation of antimicrobials. All the used microbial cultures were first subcultured on nu-trient agar or Sabouraud agar at 35°C for 18-24 h or 30°C for 24-48 h for bacteria and fungi, […]
The surface of Mueller-Hinton agar (for bacteria) and RPMI 1640 with MOPS (for fungi) were inoculated with the suspensions of bacterial or fungal species. Microbial suspensions were prepared in sterile saline with an optical density of McFarland standard scale 0.5.
Samples containing examined compounds were dissolved in dimethyl sulfoxide (DMSO).
Furthermore, bacterial and fungal suspensions were put onto Petri dishes with solid me-dia containing 2 mg/mL of the tested compounds followed incubation at 37°C for 24h and 30°C for 48h for bacteria and fungi, respectively. The inhibition of microbial growth was judged by comparison with a control culture prepared without any sample tested. Ciprof-loxacin, vancomycin, nitrofurantoin, cefuroxime, ampicillin or nystatin (Sigma) were used as a reference antibacterial or antifungal compounds, respectively.
Subsequently, the MIC (Minimal Inhibitory Concentration) of the compounds was ex-amined by the microdilution broth method, using their two-fold dilutions in Mueller- […]
Hinton broth or (for bacteria) and RPMI 1640 broth with MOPS (for fungi) prepared in 96-well polystyrene plates. Final concentrations of the compounds ranged from 1000 to 0.488 µg/ml. Microbial suspensions were prepared in 0.85% NaCl with an optical density of 0.5 McFarland standard. Next each bacterial or fungal suspension was added per each well containing broth and various concentrations of the examined compounds. After incuba-

SMILES	melting point [°C]	MBC [1] [µg/mL]	MIC [1] [µg/mL]
O=C(N/N=C/c1cc(I)cc(I)c1O)c1ccc(O)cc1O [Compound 18, 2,4-dihydroxy-N-[(2-hydroxy-3,5-diiodophenyl)methylidene]benzohydrazide]	220	> 1000	500 to 1000 (≈ 954 to 1910 µM)
CCCc1ccc(/C=N/NC(=O)c2ccc(O)cc2O)cc1 [Compound 13, 2,4-dihydroxy-N-[(4-propylphenyl)methylidene]benzohydrazide]	197	> 1000	500 to 1000 (≈ 1680 to 3350 µM)
O=C(N/N=C/c1ccccc1[N+](=O)[O-])c1ccc(O)cc1O [Compound 19, 2,4-dihydroxy-N-[(2-nitrophenyl)methylidene]benzohydrazide]			500 to 1000 (≈ 1660 to 3320 µM)

From article PMC10743905, “Design, Synthesis, and In Vitro and In Vivo Bioactivity Studies of Hydrazide–Hydrazones of 2,4-Dihydroxybenzoic Acid” (International Journal of Molecular Sciences, 2023)
